# Values of other authors in patent US20120003119A1, “ANTIMICROBIAL PEPTIDES” (priority 2007, published 2012).
# Legend:
# animal red blood cells = details: melittin isolated from bee venom
# [1] = combined with either magainin I or magainin II in a 1:1 molar ratio
# Pseudomonas aeruginosa = details: tested against the bacteria Pseudomonas aeruginosa; relative to XPF
compound,measurement,setting,value
CC[C@H](C)[C@H](NC(=O)CN)C(=O)NCC(=O)N[C@@H](C)C(=O)N[C@H](C(=O)N[C@@H](CC(C)C)C(=O)N[C@@H](CCCCN)C(=O)N[C@H](C(=O)N[C@@H](CC(C)C)C(=O)N[C@H](C(=O)N[C@H](C(=O)NCC(=O)N[C@@H](CC(C)C)C(=O)N1CCC[C@H]1C(=O)N[C@@H](C)C(=O)N[C@@H](CC(C)C)C(=O)N[C@H](C(=O)N[C@@H](CO)C(=O)N[C@@H](Cc1c[nH]c2ccccc12)C(=O)N[C@H](C(=O)N[C@@H](CCCCN)C(=O)N[C@@H](CCCNC(=N)N)C(=O)N[C@@H](CCCCN)C(=O)N[C@@H](CCCNC(=N)N)C(=O)N[C@@H](CCC(N)=O)C(=O)N[C@@H](CCC(N)=O)C(N)=O)[C@@H](C)CC)[C@@H](C)CC)[C@@H](C)O)[C@@H](C)O)C(C)C)C(C)C [melittin],lytic to both microorganisms and animal red blood cells,animal red blood cells,very lytic
PGLa,antimicrobial activity increased,[1],20-50 fold
same,times more active than XPF,Pseudomonas aeruginosa,4-5 times
